Experimental data reported in a melting point compilation (Tetko et al.; mined from patent text by program, amines drawn as free bases though some values may be those of a salt).

Row | Structure (SMILES) | melting point [°C]
1 | COc1ccc2c(c1)c(Cc1csc(-c3ccncc3)n1)c(C)n2C(=O)c1ccc(Cl)cc1 | 109 to 114
2 | COC(=NC(=O)N(C)C)NC(=O)NC(C)(C)C | 96 to 98
3 | COc1cc(N2CCC(N3CCN(C)CC3)CC2)ccc1Nc1ncc2ccc(-c3cccc(S(=O)(=O)NC(C)(C)C)c3)n2n1 | 214 to 216
4 | CC1(C)C2C(=O)OC(C(Br)(Br)Br)C21 (stereo not drawn) | 101 to 103
5 | CCCCN(CCCCCN(CCCC)c1ccc(C=O)cc1)c1ccc(C=O)cc1 | 51 to 52
6 | CC(C(=O)C=Cc1ccccc1)C(=O)C=Cc1ccccc1 (stereo not drawn) | 154 to 157
7 | COc1ccc(C#N)c(O)c1 | 169 to 171
8 | N#CC(=C(O)c1ccncc1)c1ccc(F)cc1 | 225
9 | CN1C(=O)[C@@H](NC(=O)OC(C)(C)C)COc2ccccc21 | 152
10 | CC(C)Oc1ccc(N)c(C(=O)O)c1 | 120 to 122
11 | O=c1[nH]c2cc(N3CCCC3)c(F)cc2c(=O)n1OCc1ccccc1 | > 250
12 | Cc1cccc2c1nc(COc1ccc(Cl)cc1)n2CCC(C)CC1NCCc2ccccc21 (racemic) | 114 to 116
13 | Cc1cc(N)c(C(=O)Cc2nnnn2C)cc1C | 162 to 165
14 | CC1C(=O)N(Oc2ccc(F)cc2F)Cc2ccc(NC3CCOCC3)nc21 (stereo not drawn) | 238 to 239
15 | COC(=O)CC(C)NC(=O)c1ccc(N2CCN(c3ccncc3)CC2)cc1 (stereo not drawn) | 130 to 132
16 | CC(=O)Nc1ccccc1NC(=O)CN1C(=O)c2ccccc2C1=O | 270
17 | COc1cc2[nH]nc(C(=O)NN=Cc3ccc([N+](=O)[O-])o3)c2cc1OC | 334
18 | Oc1ccc(-c2c3ccccc3c(Cl)c3sc4ccccc4c23)cc1 | 193 to 195
19 | Cc1nc(O)c(C)c(NCCc2ccncc2)n1 | 250 to 252
20 | CCCc1cccc(-c2nc(C(C)C)n(C)n2)n1 | 48.6
21 | C#CCC(C1=Nc2cnccc2C(=O)C1Nc1ccccc1)N(CCCNC(=O)OCc1ccccc1)C(=O)c1cccc(Cl)c1F (stereo not drawn) | 100 to 102
22 | C[C@H]1[C@@H](CO)CCN1c1ccc(C#N)c2ccccc12 | 158 to 159
23 | N=C(N)c1ccc(C(=O)NCCCCC(=O)NC(CC(=O)O)C(=O)NC(Cc2ccccc2)C(=O)O)cc1 (stereo not drawn) | 169 to 171
24 | Cc1cc(C)c(S(=O)(=O)Nc2cccnc2Nc2ccccc2)c(C)c1 | 140 to 142
25 | CN(C)C(=O)NNCC1CC2c3cccc4[nH]cc(c34)CC2N(C)C1 (stereo not drawn) | 205 to 206
26 | N#Cc1ccc(-c2ccccc2)c(NC(=O)Nc2cccnc2)c1 | 180 to 182

Row | Structure (SMILES) | melting point [°C]
27 | CNCC(CNC(C)=O)c1cccc2ccc(OC)cc12 (stereo not drawn) | 126 to 128
28 | CCN(CC)CCN=C=S | 83 to 83.5
29 | CN(C)c1ccc(NC(=O)[C@@H](Cc2ccccc2)NC(=O)CCC(=O)O)cc1 | 197 to 198
30 | O=C(O)c1ccc(C=CC(=O)N2CCc3c([nH]c4ccccc34)C2c2ccc3c(c2)OCO3)cc1 (stereo not drawn) | 254 to 256
31 | Cc1c(C(=O)O)ccc(S(C)(=O)=O)c1N(C)C | 113 to 114
32 | CCC1c2ccc(C#N)n2-c2ccc(F)cc2N1S(=O)(=O)c1ccc(O)c(C)c1 (stereo not drawn) | 192 to 194
33 | CCCCCCCCCSCCCN=C=O | 86 to 88
34 | Clc1ccc(Cc2cccnn2)c(Cl)c1 | 67 to 69
35 | COc1cc(Cl)cc(C)c1Nc1nc2c(Cl)ccc(C(=O)C(C)(C)C)c2n1C | 249 to 250
36 | OC(c1cc(F)cc(F)c1)c1cc(F)cc(F)c1 | 62
37 | CSc1nc(NC(=O)C2([N+](=O)[O-])C=CC=CC2S(N)(=O)=O)nn1C (stereo not drawn) | 210 to 213
38 | O=C(O)COc1cc(O)c2c(c1)NC1(CCCCC1)CC2=O | 177 to 178
39 | CCOC(=O)c1cn2c3c(cccc3c1=O)C1CCCCC12 (stereo not drawn) | 71 to 73
40 | O=[N+]([O-])c1ccc(-n2ccnn2)cc1 | 205 to 206
41 | CCOC(=O)COC1CCC2C3CCC4N(C)C(=O)CCC4(C)C3CCC12C (stereo not drawn) | 39 to 41
42 | CCOC(=O)C1=C(COCc2nnn(CC(N)=O)n2)NC(C)=C(C(=O)OC)C1c1cccc(Cl)c1Cl (stereo not drawn) | 130 to 132
43 | Oc1ccccc1C=C1c2ccccc2CCc2ccccc21 | 56.9
44 | CN1CC(c2ccc(Cl)cc2)=NNC1=O | 195 to 197
45 | CCCCCCCCCCCCCCCC1CN(C(=O)c2cc(OC)c(OC)c(OC)c2)CCN1C(=O)c1cc(OC)c(OC)c(OC)c1 (stereo not drawn) | 68
46 | CCOC(=O)c1cnc2c3cc(NC(=O)C(C)C(C)CC)ccc3c(C)cn2c1=O (stereo not drawn) | 216 to 218
47 | CC(C)(C)OC(=O)c1cccc(C#N)n1 | 156 to 157
48 | COc1ccc(CSc2ccc(OCC(=O)O)c3c2CCC3)cc1OCc1ccc(C(F)(F)F)cc1 | 150 to 151
49 | Cc1cc2c(s1)CCCNC2=O | 119 to 120
50 | Cc1[nH]c2ccc(O)cc2c1C(=O)NC1CCN(CCCc2ccccc2)CC1 | 181 to 184
51 | CCN(C(C)=O)c1cccc(-c2ccc3nnc(C)n3n2)c1 | 180 to 185
52 | CC(=O)Oc1ccc2nc(S(N)(=O)=O)sc2c1 | 193 to 194

Row | Structure (SMILES) | melting point [°C]
53 | Nc1cc(=O)n(Cc2ccc(Cl)c(Cl)c2)[nH]1 | 159
54 | CCCCc1nnc2ccccc2c1Cl | 50
55 | Fc1ccccc1CN[C@H]1CCCN[C@H]1c1ccccc1 (relative stereo) | > 260
56 | O=C(Nc1ccc(C(F)(F)F)cc1)Nc1nc(OCC(F)(F)F)cc(OCC(F)(F)F)n1 | 167 to 168
57 | COc1ccc(C2=NOC(C)(c3nnc(S)n3N)C2)cc1OC1CCCC1 (stereo not drawn) | 228 to 229
58 | O=C(Nc1ccc(C(=O)N2CCCCc3sccc32)cc1)c1ccc(Cl)c(Cl)c1 | 154 to 160
59 | CCCCCCCCCCCCCc1c(C(=O)O)sc2c(Br)csc12 | 88 to 90
60 | COc1cc2ncc(C#N)c(Nc3ccc(C)c(Cl)c3)c2cc1OC | > 250
61 | c1cncc(-c2nccs2)c1 | 44 to 45
62 | C=CCN1CCC2(CC1)CSC1=C(O2)c2ccccc2C(=O)C1=O | 166 to 168
63 | CN1CN(c2ccccc2)c2ncccc2C1=O | 140 to 141
64 | Cc1nonc1-n1cc(C(=O)O)c(=O)c2cc(F)c(N3CC[C@H](N)C3)c(F)c21 | 169 to 170
65 | CC1=CC(OC(=O)c2ccc(N)c(N)c2)C(O)C(C)(C)CC1=O (stereo not drawn) | 136 to 137
66 | CCOC(=O)C(=O)c1ccc(-c2ccc(-c3ccccc3)cc2)o1 | 91 to 94
67 | C=CCc1ccc(OCC2CCCO2)c2c(=O)cc(C(N)=O)oc12 (stereo not drawn) | 212 to 214
68 | Cc1sc(-c2ccccc2)nc1COc1ccc(COc2ccccc2CC(=O)O)cn1 | 173 to 174
69 | CCC(CC)OC(=O)c1ccc(C(=O)NS(=O)(=O)c2ccccc2)cn1 | 182 to 183
70 | O=C(CN1CCNCC1)Nc1ccccc1 | 71 to 72
71 | Clc1nc(Cl)nc(NNc2nc(Cl)nc(Cl)n2)n1 | > 250
72 | CCCc1c(-c2ccccc2)nc2n1CCc1ccccc1C2OC1CCN(C)CC1 (stereo not drawn) | 144
73 | O=C1NC(=O)C(c2cccs2)O1 (stereo not drawn) | 138 to 140
74 | COc1cc(C(=O)Nc2ccc3c(c2)CCN(C)C3)cc(OC)c1OC | 234 to 235
75 | O=C(c1cc(Br)c(OCP(=O)(O)O)c(Br)c1)c1c(Cc2ccccc2)sc2ccccc12 | 210 to 212
76 | O=S(=O)(F)c1ccccc1S(=O)(=O)F | 130 to 131
77 | CN1C(=O)C=C[C@]2(C)c3ccc(-c4cccc5ccccc45)cc3CC[C@@H]12 | 172 to 173
78 | Cc1ccc(C(N)=S)c(N)c1 | 172 to 174

Row | Structure (SMILES) | melting point [°C]
79 | Cc1ccc(C(O)CN(C)Cc2cc3c(=O)c(C(=O)NCc4ccc(Cl)cc4)cn(C)c3o2)o1 (stereo not drawn) | 130 to 132
80 | CN1C(=O)Cn2cc(C(=O)NCc3ccc(F)cc3)c(=O)c3cc(CN4CCOCC4)cc1c32 | 222 to 224
81 | CC1(C)OC(c2ccc(S(C)(=O)=O)cc2)=C(c2ccc(F)c(Cl)c2)C1=O | 162 to 164
82 | CS(=O)(=O)NC(=O)C1(CCCCCCCCCCCCC2(C(N)=O)CC2)CC1 | 119 to 120
83 | CCCCOC(=O)Cn1cccc1-c1nc(-c2ccc(OC)cc2)c(-c2ccc(OC)cc2)s1 | 98 to 101
84 | COc1cc2[nH]c(=O)n(S(=O)(=O)c3ccc(Cl)cc3)c(=O)c2cc1OC | > 250
85 | O=C(O)COc1cc(Cl)ccc1C(=O)NCc1ccc(Cl)cc1 | 184 to 186
86 | C=Cn1cc(C(N)=O)c([N+](=O)[O-])n1 | 150 to 152
87 | CC(=O)NCc1cc([N+](=O)[O-])ccc1N | 208 to 210
88 | N#Cc1ccccc1C=C1c2ccccc2CCc2ccccc21 | 185
89 | O=C1CCC(c2ccccc2)(c2ccccc2)CN1 | 177 to 180
90 | O=c1oc2ccccc2c(OCCCN2CCOCC2)c1-c1ccccc1 | 82
91 | COc1cc(C)c(Cl)cc1C(C)=O | 83
92 | CCCc1c(OCc2ccccc2C(=O)NCCCCc2cccnc2)ccc(C(C)=O)c1O | 135 to 139
93 | CSc1ccc2[nH]c(C(=O)O)cc(=O)c2c1 | 256 to 257
94 | COC(=O)c1ccc(NC(C)=O)c(CO)c1 | 60
95 | Cn1cnnc1S(=O)CC(=O)C12CC3CC(CC(C3)C1)C2 (stereo not drawn) | 124 to 127
96 | CS(=O)(=O)c1cc(C(=O)O)ccc1Oc1ccc(C(O)CSc2ccccn2)cc1 (stereo not drawn) | 169 to 174
97 | CC(C)(C)OC(=O)C(F)=CC1C(C(=O)OC(C#N)c2ccc(F)c(Oc3ccccc3)c2)C1(C)C (stereo not drawn) | 122
98 | CCOC(=O)C1=NNC2C(=O)N(Cc3ccccc3)C(=O)C12 (stereo not drawn) | 100 to 101
99 | Cc1nccn1-c1cc(NC(=O)OC(C)(C)C)cc(C(F)(F)F)c1 | 203 to 208
100 | CCOC(=O)c1c(C(=O)OC)c(O)c2cc(OC)c(OC)c(OC)c2c1-c1ccc(OC)c(OC)c1 | 157 to 159
101 | Cc1nc(N)c2ncn(CCOCc3ccncc3)c2c1C | 195 to 196
102 | O=CCCC12CC(c3ccccc31)c1ccccc12 | 135 to 140
103 | Cc1nnc2c3ccc(Cl)cc3c(-c3ccccc3)nn12 | 236 to 238
